Some test systems named below: NCI/ADR-RES ovarian; ACHN renal; UACC-257 melanoma; A498 renal; NCI-H522 lung; HOP-92 NSCLC; SW-620 colon; NCI-H460 lung; KM12 colon; 786-0 renal.
Holding throughout (experiment): DTP human tumour cell line panel, 48 h

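Where inhibition never reached the appropriate level, the endpoint shown equals the highest concentration tested. Otherwise, values were interpolated linearly from a five-concentration, 48-hour dose response in 96-well plates. GI50 = concentration required for 50% inhibition of growth. TGI: total growth inhibition.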 Bounds are passed on as bounds.

This is an account of results in PubChem BioAssay (NCI).

A word on the GI50: it is the concentration giving 50% growth inhibition. One may read the TGI as the concentration giving total growth inhibition. For `O=C1CS/C(=N/S(=O)(=O)c2ccc(N3N=C4c5ccccc5CC4C3c3cccs3)cc2)N1C(=O)c1ccccc1` (stereo not drawn), the GI50 in the assay on NCI/ADR-RES ovarian was greater than 100 µM; with ACHN renal it was 39 µM; with UACC-257 melanoma, greater than 100 µM; in the assay with A498 renal, 23.6 µM; with NCI-H522 lung, 60.1 µM; with HOP-92 NSCLC it was 37.3 µM. The GI50 in the assay with SW-620 colon was 38.5 µM; in the assay on NCI-H460 lung, greater than 100 µM; with KM12 colon, 21.4 µM; in the assay with 786-0 renal, 48.8 µM. In addition, the TGI with NCI/ADR-RES ovarian is greater than 100 µM; in the assay on ACHN renal, greater than 100 µM; in the assay with UACC-257 melanoma it was greater than 100 µM; in the assay on A498 renal, 94.6 µM; in the assay on NCI-H522 lung, greater than 100 µM; in the assay with HOP-92 NSCLC, greater than 100 µM. For the same compound, the concentration for total growth inhibition (TGI) is greater than 100 µM in the assay with SW-620 colon, greater than 100 µM with NCI-H460 lung, 56.4 µM in the assay on KM12 colon and greater than 100 µM in the assay with 786-0 renal.
Consider `FC(F)c1ncc(-c2ccc(C(F)(F)F)cc2)c(NC2CCCCCC2)n1`, for which the GI50 in the assay with NCI/ADR-RES ovarian, in the assay with ACHN renal, in the assay on UACC-257 melanoma, in the assay on A498 renal, with NCI-H522 lung and in the assay with HOP-92 NSCLC was greater than 10 µM in each case. Moreover, the GI50 with SW-620 colon, with NCI-H460 lung, in the assay on KM12 colon and in the assay with 786-0 renal was greater than 10 µM in each case. For the same compound, the TGI in the assay on NCI/ADR-RES ovarian, in the assay with ACHN renal, in the assay on UACC-257 melanoma, in the assay with A498 renal, in the assay with NCI-H522 lung and with HOP-92 NSCLC was greater than 10 µM each time. The total growth inhibition concentration (TGI) with SW-620 colon, in the assay on NCI-H460 lung, with KM12 colon and in the assay on 786-0 renal was greater than 10 µM throughout.
For the compound `CCCCC#Cc1c(I)n(C2OC(CO[Si](C)(C)C(C)(C)C)C3OC(C)(C)OC32)c(=O)n(C(=O)c2ccccc2)c1=O` (stereo not drawn), the GI50 in the assay on NCI/ADR-RES ovarian is 18.5 µM; in the assay with ACHN renal it was 3 µM; in the assay with UACC-257 melanoma, 16.4 µM; in the assay on A498 renal it was 30.9 µM; in the assay on NCI-H522 lung, 1.84 µM; in the assay on HOP-92 NSCLC it was 0.885 µM. Besides, the GI50 with SW-620 colon is 2.33 µM; with NCI-H460 lung it was 10.9 µM; in the assay on KM12 colon, 1.5 µM; with 786-0 renal, 3.25 µM. For the same compound, the concentration for total growth inhibition (TGI) is 49.3 µM in the assay on NCI/ADR-RES ovarian; greater than 100 µM with ACHN renal; 30.7 µM with UACC-257 melanoma; 98.3 µM with A498 renal; 3.93 µM with NCI-H522 lung; 13.5 µM with HOP-92 NSCLC. For the same compound, the concentration for total growth inhibition (TGI) in the assay with SW-620 colon came to 6.03 µM; with NCI-H460 lung, 27.4 µM; in the assay on KM12 colon it was 3.05 µM; with 786-0 renal, 14.5 µM.
For `OCCCCC#Cc1ccccc1C#Cc1cccnc1`, the GI50 in the assay on NCI/ADR-RES ovarian was 28.9 µM; with ACHN renal, 28.3 µM; with UACC-257 melanoma, 25 µM; with A498 renal it was 28.5 µM; in the assay with NCI-H522 lung it was 41.9 µM; in the assay with HOP-92 NSCLC, 38.2 µM. The GI50 with SW-620 colon is 45.2 µM; with NCI-H460 lung, 31.6 µM; in the assay on KM12 colon it was 35.2 µM; with 786-0 renal, 20.2 µM. In addition, the TGI with NCI/ADR-RES ovarian is greater than 100 µM; in the assay on ACHN renal it was greater than 100 µM; with UACC-257 melanoma, 54.1 µM; in the assay with A498 renal, 88.4 µM; with NCI-H522 lung, greater than 100 µM; with HOP-92 NSCLC, greater than 100 µM. For the same compound, the TGI in the assay on SW-620 colon is greater than 100 µM; with NCI-H460 lung, greater than 100 µM; in the assay on KM12 colon, greater than 100 µM; in the assay with 786-0 renal it was 58.3 µM.
`Nc1c(C(=O)c2cccc(C(O)CO)c2)cnn1-c1ccc(F)cc1` (stereo not drawn): the GI50 in the assay on NCI/ADR-RES ovarian, in the assay with ACHN renal, in the assay with UACC-257 melanoma, in the assay with A498 renal, with NCI-H522 lung and in the assay on HOP-92 NSCLC was greater than 25 µM each time. In addition, the GI50 in the assay on SW-620 colon, with NCI-H460 lung, with KM12 colon and in the assay on 786-0 renal was greater than 25 µM throughout. Besides, the TGI with NCI/ADR-RES ovarian, in the assay on ACHN renal, with UACC-257 melanoma, in the assay with A498 renal, in the assay on NCI-H522 lung and in the assay with HOP-92 NSCLC was greater than 25 µM in each case. Further, the TGI in the assay with SW-620 colon, in the assay on NCI-H460 lung, with KM12 colon and in the assay with 786-0 renal was greater than 25 µM in each case.
`CC(C)(C)c1ccc(C2CC(=O)C3=C(C2)Nc2ccccc2N(C(=O)c2ccccc2Cl)C3c2ccc(F)cc2)cc1` (stereo not drawn): the GI50 was greater than 100 µM in the assay with NCI/ADR-RES ovarian; greater than 100 µM in the assay with ACHN renal; greater than 100 µM in the assay with UACC-257 melanoma; 1.3 µM in the assay on A498 renal; greater than 100 µM in the assay on HOP-92 NSCLC; greater than 100 µM in the assay on SW-620 colon. Moreover, the GI50 in the assay on NCI-H460 lung, with KM12 colon and in the assay with 786-0 renal was greater than 100 µM each time. Further, the total growth inhibition concentration (TGI) in the assay on NCI/ADR-RES ovarian, in the assay on ACHN renal, with UACC-257 melanoma, in the assay on A498 renal, in the assay with HOP-92 NSCLC and in the assay on SW-620 colon was greater than 100 µM in each case. Moreover, the TGI in the assay with NCI-H460 lung, in the assay with KM12 colon and in the assay on 786-0 renal was greater than 100 µM each time.
`CN(C)C=N[C@@H](C(=O)O)c1ccccc1`: the TGI in the assay with NCI/ADR-RES ovarian, with ACHN renal, in the assay with UACC-257 melanoma, with A498 renal, in the assay on HOP-92 NSCLC and in the assay on SW-620 colon was greater than 100 µM each time. In addition, the TGI with NCI-H460 lung and in the assay with 786-0 renal was greater than 100 µM throughout.
Consider `CC12CCC(=O)C(O1)C1C(=O)c3ccc4c(ccc5ccccc54)c3C(=O)C12` (stereo not drawn), for which the GI50 was 5.43 µM in the assay with NCI/ADR-RES ovarian; 3.13 µM in the assay on ACHN renal; 3.11 µM in the assay with UACC-257 melanoma; 3.08 µM in the assay on A498 renal; 5.52 µM in the assay on NCI-H522 lung; 7.1 µM in the assay on HOP-92 NSCLC. The GI50 in the assay on NCI-H460 lung was 4.84 µM; with KM12 colon, 4.99 µM; in the assay on 786-0 renal it was 2.35 µM. The TGI in the assay with NCI/ADR-RES ovarian is 12.6 µM; in the assay on ACHN renal, 8.21 µM; with UACC-257 melanoma, 8.15 µM; in the assay with A498 renal it was 5.83 µM; with NCI-H522 lung it was 14.3 µM; in the assay with HOP-92 NSCLC, 32.3 µM. Besides, the TGI was determined as 11.8 µM in the assay with NCI-H460 lung, 9.66 µM with KM12 colon and 6.01 µM in the assay on 786-0 renal.
Consider `O=C1C=CC(=O)c2c1ccc1c3ccccc3n(Cc3ccccc3)c21`, for which the TGI is greater than 68.4 µM with NCI/ADR-RES ovarian; 35.4 µM with ACHN renal; 40.9 µM with UACC-257 melanoma; 44.3 µM in the assay on A498 renal; 19.9 µM in the assay with NCI-H522 lung; 25.7 µM in the assay on SW-620 colon. In addition, the concentration for total growth inhibition (TGI) in the assay on NCI-H460 lung is greater than 100 µM; in the assay with KM12 colon it was greater than 100 µM; in the assay on 786-0 renal it was 33.1 µM.
